{"source": "patent US8481483B2", "about": "“Cyclosporin analogues” (priority 2009, dated 2013)", "origin": "cited, not measured here", "key": {"cyclophilin A": {"biological_target": "cyclophilin A (Homo sapiens, UniProt P62937)", "sequence (P62937 whole entry, species assumed)": "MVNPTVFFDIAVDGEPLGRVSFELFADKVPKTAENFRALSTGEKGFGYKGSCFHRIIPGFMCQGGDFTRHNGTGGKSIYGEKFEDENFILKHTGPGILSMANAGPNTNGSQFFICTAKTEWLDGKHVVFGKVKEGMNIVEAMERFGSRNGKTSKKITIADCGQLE"}, "[1]": {"system": "hepatitis C virus replication", "conditions": "Antiviral Research 65(3):A41 (2005)"}}, "data": [{"smiles": "C/C=C/C[C@@H](C)[C@@H](O)[C@H]1C(=O)N[C@@H](CC)C(=O)N(C)[C@H](C)C(=O)N(CC)[C@@H](C(C)C)C(=O)N[C@@H](C(C)C)C(=O)N(C)[C@@H](CC(C)C)C(=O)N[C@@H](C)C(=O)N[C@H](C)C(=O)N(C)[C@@H](CC(C)C)C(=O)N(C)[C@@H](CC(C)C)C(=O)N(C)[C@@H](C(C)C)C(=O)N1C", "note": "[DEBIO-025]", "values": [{"measurement": "binding affinity for cyclophilin A", "setting": "cyclophilin A", "result": "potent binding affinity"}, {"measurement": "inhibition of hepatitis C virus replication", "setting": "[1]", "result": "potent and selective inhibition"}]}]}
